“And” between values parts separate entries of the source, which are not always exact repeats. Equal values may be shown once.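 Five concentrations, 48 hours, 96-well plates. The concentration for 50% growth inhibition is given as GI50. TGI: total growth inhibition.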 Starred links: 1 amine or outer side, 2 acyl side, 3 side chain; linkers in the order of their positions; H or OH if unused. Positions of bridges follow the written chain, without caps; N, C: chain ends. Non-standard residues stand in square brackets, D forms with d. Residues, ends and D or L forms follow the SMILES beside them. Chains are numbered I, II in the order given. Actinocin(9to1) = Cc1c2oc3c(C)ccc(C(=O)[*:1])c3nc-2c(C(=O)[*:2])c(N)c1=O; NMeY = CN[CH](Cc1ccc(O)cc1)C(=O)O; Sar = CNCC(=O)O
How the values were obtained:
Assay in all cases: growth of human tumour cells (NCI), 48 h
[1] = test system: DU-145 prostate
[2] = test system: BT-549 breast
[3] = test system: HCC-2998 colon
[4] = test system: SF-268 CNS
[5] = test system: A498 renal
[6] = test system: SK-MEL-2 melanoma
[7] = test system: EKVX NSCLC
[8] = test system: HOP-92 NSCLC
[9] = test system: UACC-257 melanoma
[10] = test system: MALME-3M melanoma
[11] = test system: MDA-MB-435

Row | SMILES | TGI [1] | TGI [2] | TGI [3] | TGI [4] | TGI [5] | TGI [6] | TGI [7] | TGI [8] | TGI [9] | TGI [10] | TGI [11] | GI50 [11] | GI50 [1] | GI50 [3] | GI50 [7] | GI50 [9]
1 | Cc1ccc(S(=O)(=O)c2[nH]cc(/C(=C\C3CCCCC3)[N+](=O)[O-])c2C2CCCCC2)cc1 | 1.49 µM | 0.813 µM | 0.485 µM | 1.84 µM | 0.837 µM | 1.82 µM | 1.4 µM | 3.99 µM | 1.2 µM | 1.62 µM | > 100 µM | – | – | – | – | –
2 | O=c1[nH]cnc2c1cnn2Cc1cn(CCCCO)nn1 | > 100 µM | > 100 µM | > 100 µM | > 100 µM | > 100 µM | > 100 µM | > 100 µM | > 100 µM | > 100 µM | > 100 µM | > 100 µM | – | – | – | – | –
3 | O=C1Nc2cccc(Cl)c2/C1=C\c1c(Cl)nc2n1CCS2 | > 100 µM | > 100 µM | > 100 µM | > 100 µM | > 100 µM | > 100 µM | > 100 µM | > 100 µM | > 100 µM | > 100 µM | > 100 µM | – | – | – | – | –
4 | Cc1n(Cc2ccccc2)c2c([n+]1C)C(=O)c1ccccc1C2=O | 0.32 µM | 0.234 µM | 1.45 µM | 0.143 µM | 0.653 µM | 0.388 µM | 1.01 µM | 1.49 µM | 0.14 µM | 0.0577 µM | 0.33 µM | – | – | – | – | –
5 | Nc1ccc2c(c1)C(=O)N1CCC[C@H]1C(=O)N2 | > 100 µM | > 100 µM | > 100 µM | > 100 µM | > 100 µM | > 100 µM | > 100 µM | > 100 µM | > 100 µM | > 100 µM | > 100 µM | – | – | – | – | –
6 | Cc1ccnc2[nH]c(-c3ccc4ccccc4c3)cc(=O)c12 | 35.1 µM | 31.8 µM | 19.4 µM | 39.4 µM | 4.87 µM | 28.2 µM | 26.8 µM | 4.78 µM | 32.8 µM | 18.6 µM | 0.453 µM | 0.204 µM | – | – | – | –
7 | Brc1ccc2[nH]cc(-c3csc(-c4c[nH]c5ccccc45)n3)c2c1 | 9.15 µM | 22.7 µM | 3.96 µM | 8.91 µM | 13.8 µM | 9.36 µM | 12 µM | 7.68 µM | 17.8 µM | 8.21 µM | 15.7 µM | – | – | – | – | –
8 | O=C1Sc2cc3ccccc3cc2C(=O)Sc2ccc(Br)cc21 | 16.9 µM | 12.1 µM | 19.3 µM | 23.2 µM | 33.4 µM | 12.8 µM | 28.1 µM | 20.9 µM | 17.6 µM | 26.5 µM | 13.4 µM | – | – | – | – | –
9 | O=S(=O)(O)CCCc1cccc2ccccc12 | > 100 µM | > 100 µM | > 100 µM | > 100 µM | > 100 µM | > 100 µM | > 100 µM | > 100 µM | > 100 µM | > 100 µM | > 100 µM | – | – | – | – | –
10 | COc1cccc(CCNC(=O)Cc2ccccc2CCO)c1 | > 100 µM | > 100 µM | > 100 µM | > 100 µM | > 100 µM | > 100 µM | > 100 µM | > 100 µM | > 100 µM | – | > 100 µM | – | – | – | – | –
11 | CC(=O)Nc1sc(Br)cc1S(=O)(=O)c1ccc(Cl)cc1 | > 100 µM | 74.8 µM | 44.2 µM | > 100 µM | > 100 µM | > 100 µM | > 100 µM | 59.5 µM | > 100 µM | > 100 µM | > 100 µM | – | – | – | – | –
12 | CC(C)(C)OC(=O)NC1CCCCC1NC(=O)C(=O)NC1CCCCC1NC(=O)OC(C)(C)C (configuration not stated) | > 100 µM | > 100 µM | > 100 µM | > 100 µM | 79.6 µM | > 100 µM | > 100 µM | 45 µM | > 100 µM | > 100 µM | > 100 µM | – | – | – | – | –
13 | CCn1c(-c2ccccc2)cs/c1=N\C(P(=O)(O)O)P(=O)(O)O | > 100 µM | > 100 µM | > 100 µM | > 100 µM | > 100 µM | – | > 100 µM | > 100 µM | > 100 µM | > 100 µM | > 100 µM | – | – | – | – | –
14 | COc1cc(C2c3cc4c(cc3OC(N3CCCCC3)C2C)OCO4)cc(OC)c1O (configuration not stated) | 49.6 µM | 90.5 µM | 32.7 µM | > 53.8 µM | 27.1 µM | 25.2 µM | > 83.4 µM | 37.3 µM | 41.9 µM | 16.8 µM | 5.92 µM | – | – | – | – | –
15 | CN(C)c1ccc(/C=c2/c3ccccc3n3c2c2c([n+]3C)CCCC2)cc1 | 2.39 µM | 2.19 µM | 0.375 µM | 1.6 µM | 0.92 µM | 0.59 µM | 0.353 µM | 0.141 µM | 2.88 µM | 0.866 µM | 0.717 µM | – | – | – | – | –
16 | Cc1c2oc3c(C)ccc(C(=O)NC4C(=O)NC(C(C)C)C(=O)N5CCCC5C(=O)N(C)CC(=O)N(C)C(Cc5ccc(O)cc5)C(=O)OC4C)c3nc-2c(C(=O)NC2C(=O)NC(C(C)C)C(=O)N3CCCC3C(=O)N(C)CC(=O)N(C)C(Cc3ccc(O)cc3)C(=O)OC2C)c(N)c1=O (configuration not stated) (I: TVP[Sar][NMeY] / II: TVP[Sar][NMeY]; ester I:1-I:C, II:1-II:C; linker I:N-II:N via Actinocin(9to1); configuration not given here) | > 1 µM | 0.213 µM and 0.0733 µM | 0.277 µM and 0.169 µM | > 1 µM | 0.664 µM and 0.11 µM | 0.111 µM and 0.0245 µM | > 1 µM | > 1 µM | 0.54 µM and 0.446 µM | 0.273 µM and 0.156 µM | 0.259 µM and 0.147 µM | 0.0459 µM and 0.0099 µM | 0.0687 µM and 0.0302 µM | 0.104 µM and 0.0112 µM | 0.231 µM and 0.102 µM | 0.0936 µM and 0.0111 µM
17 | CCOC1(OCC)C2C=CC1C(COS(=O)(=O)c1ccc(C)cc1)C2COS(=O)(=O)c1ccc(C)cc1 (configuration not stated) | > 100 µM | > 100 µM | > 100 µM | > 100 µM | 54.9 µM | 80.9 µM | > 100 µM | 48 µM | 62.2 µM | 77.1 µM | > 100 µM | – | – | – | – | –
18 | O=C1/C(=C/c2ccc(Br)s2)NC(=S)N1c1ccccc1 | > 100 µM | > 100 µM | > 100 µM | > 100 µM | > 100 µM | > 100 µM | > 100 µM | 71.6 µM | > 100 µM | > 100 µM | > 100 µM | – | – | – | – | –

Source: PubChem BioAssay (NCI)
